# Laboratory results taken from US8093209B2, “Methods of suppressing microglial activation and systemic inflammatory responses” (Cognosci, Incorporated, priority 2002, dated 2012).
# “Also recorded” adds a separate entry of the source.
# Columns and labels:
# [1] = system: thioglycollate-elicited peritoneal macrophages; assay: Competition between apoE and apoE mimetic peptide: [Ca2+]i on sequential stimulation; type: cell-based, mouse
# Procedure: Fura-2/AM loaded macrophages were incubated overnight, plated on glass cover slips, stimulated with one ligand, and changes in [Ca^2+]i quantified. Cells were then stimulated with second ligand and Ca^2+ measurements repeated.
# [2] = system: thioglycollate-elicited peritoneal macrophages; assay: IP3 formation in myo-[2-3H]inositol-labeled macrophages (Example 10); type: cell-based, mouse
# Procedure: (§1) Macrophage Harvesting. All experiments involving animals were first approved by the Duke Institutional Animal Care and Use Committee. Pathogen-free female C57BL/6 mice and ApoE deficient mice previously backcrossed 10 times to the C57BL/6 strain were obtained from the Jackson Laboratory (Bar Harbor, Me.). Thioglycollate-elicited peritoneal macrophages were harvested by peritoneal lavage using 10 ml of ice-cold Hanks' balanced salt solution containing 10 mM HEPES and 3.5 mM NaHCO3 (HHBSS), pH 7.4. The macrophages were pelleted by centrifugation at 4° C. at ˜800×g for 10 min and resuspended in RPMI 1640 media supplemented with 25 mM HEPES, 12.5 U/ml penicillin, 6.5 mg/ml streptomycin, and 5% fetal bovine serum. Cell viability was determined by the trypan blue exclusion method and was consistently greater then 95%.
# Measurement of IP3 in apoE treated macrophage and effect of pertussis toxin. The formation of IP3 in myo-[2-^3H]inositol-labeled macrophages under various experimental conditions was quantified in accordance with known techniques. Macrophage were plated in 6 well plates (4×10^6 cells/well) and allowed to adhere at 37° C. for 2 h in a humidified 5% CO2 incubator. Medium was aspirated from the monolayers and RPMI 1640 medium containing 0.25% BSA and myo-[2-^3H]inositol (specific activity 10-20 Ci/mmol) was added to each well. […] Radioactivity was determined by placing aliquots in a liquid scintillation counter to determine radioactivity. […] The effect on IP3 formation was measured as described above.
# [3] = system: thioglycollate-elicited peritoneal macrophages; assay: [Ca2+]i in Fura-2/AM treated single macrophages, digital imaging microscopy (Example 10); type: cell-based, mouse; details: for increase in [Ca2+]i levels compared to buffer: macrophage
# Procedure: as §1, with “serum.” for “serum. Cell viability was determined by the trypan blue exclusion method and was consistently greater then 95%.”
# Measurement of [Ca^2+]i in apoE and peptide treated macrophage. Changes in [Ca^2+]i levels in Fura-2/AM treated single cells were quantified using digital imaging microscopy in accordance with known techniques. Macrophages were plated on glass coverslips sitting in 35 mm Petri dishes at a density of 1.5×10^5 cells/cm^2, and allowed to adhere for 2 h in a humidified 5% CO2 incubator at 37° C. The non-adherent cells were aspirated and the monolayers were washed twice with HHBSS. 4 μM Fura-2/AM was incubated with the cells for thirty min in the dark at room temperature and [Ca^2+]i was subsequently measured using a digital imaging microscope in accordance with known techniques. […] To determine if signaling resulted from ligation of the ligand to LRP, cells were preincubated with a 1000-fold molar excess of RAP or 10 mM NiCl2, both of which inhibit ligand binding to LRP, for 5 min prior to stimulation with apoE or peptide. In experiments in which the involvement of a G protein was assessed, monolayers were incubated with 1 μg/ml pertussis toxin for 12 h at 37° C. and Ca^2+ measurements were made as stated above.
# [4] = system: primary rat neuronal/glial cultures exposed to NMDA; assay: NMDA-induced 45Ca uptake by primary neuronal-glial cultures; type: cell-based; details: 6 μM peptide, 100 μM NMDA
# Procedure: (§2) Primary neuronal-glial cultures were prepared from fetal Sprague-Dawley rat brains at 18 days of gestation as previously described (Pearlstein et al., 1998). Brains were harvested from 10-15 pups and dissected to separate cortex from meninges and subcortical structures using anatomical landmarks. Cortices were pooled and minced into 2 mm^3 pieces in a buffered salt solution supplemented with 20 mM HEPES buffer, pH 7.4, containing 0.25% trypsin. The tissue was incubated for 20 minutes at 37° C. in a 5% CO2/95% room air atmosphere, and washed twice with ice-cold, glutamine-free minimum essential medium (MEM; Life Technologies) containing 15 mM glucose, 5% fetal bovine serum (GIBCO), 5% horse serum (GIBCO), and 1% DNase-I (Sigma Chemical Co., St. Louis, Mo., USA). Tissue pieces were dissociated by trituration through a fire-polished 9-inch Pasteur pipette (I.D.=0.7 mm). The resultant suspension was centrifuged at 50×g for 10 min, the supernatant discarded, and the pellet resuspended in growth medium (MEM supplemented with 15 mM glucose, 5% fetal bovine serum, and 5% horse serum). The dissociated cells were plated to achieve a confluent monolayer using 4×10^5 cells per well in poly-D-lysine coated, 24-well culture plates (Falcon 3047; Becton Dickinson Co., Lincoln Park, N.J., USA). Cultures were maintained undisturbed at 37° C. in a humidified 5% CO2/95% room air atmosphere for 13-16 days prior to use.
# Cellular calcium uptake from the extracellular space was assessed using ^45CaCl2 (American Radiolabeled Chemicals, St. Louis, Mo.). After washing the cultures with Mg^2+-free BSS containing 20 mM HEPES buffer, 6 μM peptide or 10 μM MK-801 was added to each well prior to and removed at the end of 100 μM NMDA exposure. ^45Ca (0.28 μCi/ml, 0.9 μCi/well) was added to each well immediately prior to NMDA exposure. The cultures were returned to the incubator and maintained at 37° C. Twenty minutes later, the exposure medium was removed and each well was washed 3 times with ice-cold Mg^2+-free BSS containing 20 mM HEPES buffer. The cells were subsequently lysed by addition of 0.2% sodium dodecyl sulfate (SDS). An aliquot from each well was added to a liquid scintillation vial containing 10 ml Cytoscint™ (ICN, Biochemical Research Product, CA) and radioactivity was determined by scintillation counting and normalized to cell count.
# [5] = system: primary rat neuronal/glial cultures exposed to NMDA; assay: NMDA-induced LDH release in primary neuronal-glial cultures; type: cell-based; details: peptide 0.3-10 μM, 100 μM NMDA
# Procedure: as §2
# Mature cultures (13-16 days in vitro) were washed with Mg^2+-free buffered salt solution (BSS) containing 20 mM HEPES buffer (pH7.4) and 1.8 mM CaCl2, prior to the addition of NMDA. Following NMDA exposure, cultures were maintained for 30 minutes at 37° C. in a 5% CO2/95% air atmosphere. The medium containing NMDA was then removed and replaced with MEM supplemented with 20 mM glucose. The cultures were returned to the incubator for 24 h. In all experiments, cellular damage was assessed at 24 h after exposure to NMDA by measurement of the activity of lactate dehydrogenase (LDH) released into the medium as described below. The non-competitive NMDA receptor antagonist, MK-801 (Tocris Cookson Ins., St. Louis, Mo.) at a concentration of 10 μM was used as a positive control. Preliminary dose-response studies were performed to determine the concentration of NMDA (100 μM) required to effect a near-maximal LDH release (ED90) as used in the present study.
# The effect of human recombinant apoE (Panverra, Madison, Wis.) on 100 μM NMDA-induced LDH release was assessed and the dose-response curve was obtained (apoE: 0.1-10 μM final concentration). ApoE3, the most common human isoform, was added to the cultures 30 minutes prior to and removed following NMDA exposure. The effect of apoE peptide (133-149) on NMDA (100 μM or 300 μM)-induced LDH release was next assessed and the dose-response curve was obtained in a separate set of sister cultures that were simultaneously treated under one of the following conditions: (1) various doses of peptide (0.3 μM, 1 μM, 3 μM, 6 μM, 10 μM final concentration) were added to the culture immediately prior to and removed at the end of NMDA exposure; (2) no peptide, NMDA exposure; (3) no peptide, no NMDA exposure; (4) no peptide, NMDA exposure with 10 μM MK-801 for 30 minutes. The effect of a scrambled control peptide on NMDA-induced LDH release was similarly assessed.
# The effect of time of administration of apoE peptide (133-149) on NMDA-induced LDH release was assessed in a separate set of sister cultures that were simultaneously treated under one of following conditions: (1) peptide was added to the culture medium 24 h prior to and removed immediately before exposure to NMDA; (2) peptide was added immediately prior to and removed at the end of the NMDA exposure; (3) peptide was added immediately following the 30 minutes NMDA exposure; (4) no peptide, NMDA exposure; (5) no peptide, no NMDA exposure. […]
Substance,[Ca2+]i response on repeated or sequential ligand exposure (desensitization) [1],increase in IP3 levels [2],concentration dependence of IP3 increase ([2]; stimulated 60 s),cells examined showing increase in [Ca2+]i [3],concentration dependence of [Ca2+]i increase [3],increase in [Ca2+]i levels compared to buffer [3],"[Ca2+]i level in treated cells, typical experiment ([3]; unstimulated cells 95.33±7.37 nM) [nM]",NMDA-induced calcium influx compared to NMDA alone [4],"protection against NMDA toxicity (LDH release), dose response [5]"
apoE: Example 10: human recombinant apoE2 obtained commercially from Panvera Corp,marked attenuation in [Ca^2+]i suggesting tachyphylaxis; also recorded: loss of [Ca^2+]i response to apoE addition following initial exposure to peptide,1.5-2.0 fold,dose-dependent,70-80%,dose-dependent,2-4 fold,180.25 ± 14.57,,
scrambled control peptide: Example 10: scrambled control of identical size and amino acid composition to the 20 amino acid ApoE mimetic peptide (Ac-LARKLRSRLVHLRLKLR-NH2) [reference compound],No desensitization in calcium response,,,,,no effect,,no effect on calcium influx,no protection was observed
